In patent US20250304576A1 (Cancer Research Technology Limited, priority 2022, published 2025):

Columns and labels:
[1] = biological target: T1, Recombinant IKKα (Homo sapiens, UniProt O15111); assay: DELFIA IKKα kinase assay (apparent Ki, Cheng-Prusoff); type: biochemical
T1 construct: purchased Millipore, Dundee, UK
T1 sequence (O15111 1-745): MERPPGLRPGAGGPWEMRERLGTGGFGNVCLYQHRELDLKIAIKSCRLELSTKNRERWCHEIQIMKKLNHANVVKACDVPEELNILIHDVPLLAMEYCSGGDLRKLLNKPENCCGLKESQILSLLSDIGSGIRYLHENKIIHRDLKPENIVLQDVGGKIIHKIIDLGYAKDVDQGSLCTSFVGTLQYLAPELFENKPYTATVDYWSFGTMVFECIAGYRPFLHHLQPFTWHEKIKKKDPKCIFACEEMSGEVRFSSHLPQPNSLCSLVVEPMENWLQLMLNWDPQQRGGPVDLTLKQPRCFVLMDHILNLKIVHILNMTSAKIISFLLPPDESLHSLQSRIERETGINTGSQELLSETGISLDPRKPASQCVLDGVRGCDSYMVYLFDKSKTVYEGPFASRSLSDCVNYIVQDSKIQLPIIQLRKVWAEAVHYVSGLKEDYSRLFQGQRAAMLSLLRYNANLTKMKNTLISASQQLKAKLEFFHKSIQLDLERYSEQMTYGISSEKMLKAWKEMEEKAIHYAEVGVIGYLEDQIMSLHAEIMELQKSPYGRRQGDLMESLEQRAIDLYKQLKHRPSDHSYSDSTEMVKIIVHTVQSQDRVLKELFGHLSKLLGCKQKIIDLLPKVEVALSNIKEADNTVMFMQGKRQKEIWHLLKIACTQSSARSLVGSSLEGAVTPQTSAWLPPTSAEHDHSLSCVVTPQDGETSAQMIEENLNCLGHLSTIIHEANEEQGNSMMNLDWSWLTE
Procedure, shortened: (§1)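 DELFIA time-resolved fluorescence (ex 340/em 615 nm) quantified phosphorylation of a biotinylated IκB-α Ser32 peptide (0.375 μM) by 37 nM recombinant IKKα or IKKβ. Reactions used 40 μM ATP, Tris pH 7.5 buffer with MgCl2, DTT and BSA, 60 min at 30° C. Cheng-Prusoff equation gave apparent Ki.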

[2] = biological target: T2, Recombinant IKKβ (Homo sapiens, UniProt O14920); assay: DELFIA IKKβ kinase assay (apparent Ki, Cheng-Prusoff); type: biochemical
T2 construct: purchased Millipore, Dundee, UK
T2 sequence (O14920 1-756): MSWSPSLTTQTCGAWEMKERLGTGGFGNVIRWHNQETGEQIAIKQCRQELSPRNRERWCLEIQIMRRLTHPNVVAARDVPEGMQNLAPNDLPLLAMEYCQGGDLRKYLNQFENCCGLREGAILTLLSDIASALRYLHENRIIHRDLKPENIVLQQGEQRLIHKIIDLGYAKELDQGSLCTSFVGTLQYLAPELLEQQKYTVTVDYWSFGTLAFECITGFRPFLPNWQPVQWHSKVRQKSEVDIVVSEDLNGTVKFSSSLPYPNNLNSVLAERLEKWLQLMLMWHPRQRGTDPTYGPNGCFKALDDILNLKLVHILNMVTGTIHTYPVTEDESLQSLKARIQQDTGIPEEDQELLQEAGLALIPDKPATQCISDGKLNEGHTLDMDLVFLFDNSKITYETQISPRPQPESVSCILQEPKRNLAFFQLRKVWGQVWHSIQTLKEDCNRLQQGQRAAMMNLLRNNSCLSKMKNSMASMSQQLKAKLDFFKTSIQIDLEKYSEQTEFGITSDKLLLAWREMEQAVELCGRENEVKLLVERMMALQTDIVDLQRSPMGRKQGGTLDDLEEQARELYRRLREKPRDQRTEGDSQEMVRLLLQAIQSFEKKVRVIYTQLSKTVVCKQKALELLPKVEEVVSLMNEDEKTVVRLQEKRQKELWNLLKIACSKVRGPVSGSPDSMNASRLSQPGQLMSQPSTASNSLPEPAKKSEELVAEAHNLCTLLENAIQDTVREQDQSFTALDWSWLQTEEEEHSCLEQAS
Procedure, shortened: as §1

[3] = non-italicised figure: DELFIA assay
[4] = DELFIA assay (first line of an example)

Ki [1, 3]	Ki [2, 3]	Ki [1, 4]	Ki [2, 4]	SMILES
40 nM	500 nM			Nc1cc(-c2cc(-c3cccc(F)c3)c3[nH]nc(N)c3c2)ccn1 [Example 105, 5-(2-Aminopyridin-4-yl)-7-(3-fluorophenyl)-1H-indazol-3-amine]
		8 nM	109 nM	Nc1n[nH]c2ccc(-c3ccnc4[nH]c(C(=O)NCCN5CCCCC5)cc34)cc12 [Example 244, 4-(3-Amino-1H-indazol-5-yl)-N-(2-(piperidin-1-yl)ethyl)-1H-pyrrolo[2,3-b]pyridine-2-carboxamide]
100 nM	> 10000 nM			Nc1n[nH]c2ccc(-c3ccnc(N[C@H]4CC[C@H](O)CC4)c3)cc12 [Example 24, 5-{2-[(Trans-4-hydroxycyclohexyl)amino]pyridin-4-yl}-1H-indazol-3-amine]
> 10000 nM	> 10000 nM			CNC(=O)C#Cc1c(-c2ccc3[nH]nc(N)c3c2)ccnc1N [Example 98, 3-(2-Amino-4-(3-amino-1H-indazol-5-yl)pyridin-3-yl)-N-methylpropiolamide]
		18 nM	389 nM	COCCNCc1cc2c(-c3ccc4[nH]nc(N)c4c3)ccnc2[nH]1 [Example 254, 5-(2-(((2-Methoxyethyl)amino)methyl)-1H-pyrrolo[2,3-b]343yridine-4-yl)-1H-indazol-3-amine]
65 nM	838 nM			CC(C)CCNc1cc(-c2ccc3[nH]nc(N)c3c2)ccn1 [Example 16, 5-(2-(Isopentylamino)pyridin-4-yl)-1H-indazol-3-amine]
		366 nM	3100 nM	Nc1n[nH]c2c(C#CCO)cc(-c3ccnc4[nH]ccc34)cc12 [Example 205, 3-(3-Amino-5-(1H-pyrrolo[2,3-b]pyridin-4-yl)-1H-indazol-7-yl)prop-2-yn-1-ol]
52 nM	1260 nM			Nc1cc(-c2cc(-c3ccc(CN4CCOCC4)cc3)c3[nH]nc(N)c3c2)ccn1 [Example 122, 5-(2-Aminopyridin-4-yl)-7-(4-(morpholinomethyl)phenyl)-1H-indazol-3-amine]
224 nM	1760 nM			Nc1cc(-c2cc(-c3ccccc3Cl)c3[nH]nc(N)c3c2)ccn1 [Example 124, 5-(2-Aminopyridin-4-yl)-7-(2-chlorophenyl)-1H-indazol-3-amine]
26 nM	137 nM			C#Cc1cc(-c2ccnc3[nH]ccc23)cc2c(N)n[nH]c12 [Example 6, 7-Ethynyl-5-(1H-pyrrolo[2,3-b]pyridin-4-yl)-1H-indazol-3-amine]
5 nM	335 nM			Nc1n[nH]c2ccc(-c3ccnc4[nH]c(C(=O)O)cc34)cc12 [Example 10, 4-(3-Amino-1H-indazol-5-yl)-1H-pyrrolo[2,3-b]pyridine-2-carboxylic acid]
		340 nM	4200 nM	Nc1n[nH]c2ccc(-c3ccnc(NC(=O)CC4CCCCC4)c3)cc12 [Example 335, N-(4-(3-Amino-1H-indazol-5-yl)pyridin-2-yl)-2-cyclohexylacetamide]
38 nM	4200 nM			Nc1n[nH]c2ccc(-c3ccnc(NC(=O)Nc4cccc(OCc5ccccc5)c4)c3)cc12 [Example 57, 1-(4-(3-Amino-1H-indazol-5yl)pyridin-2-yl)-3-(3-(benzyloxy)phenyl)urea]
		5 nM	60 nM	Nc1n[nH]c2ccc(-c3ccnc4[nH]c(C(=O)NCCCc5ccccc5)cc34)cc12 [Example 239, 4-(3-Amino-1H-indazol-5-yl)-N-(3-phenylpropyl)-1H-pyrrolo[2,3-b]pyridine-2-carboxamide]
15 nM	470 nM			CCOC(=O)Nc1cc(-c2ccc3[nH]nc(N)c3c2)ccn1 [Example 35, Ethyl (4-(3-amino-1H-indazol-5-yl)pyridin-2-yl)carbamate]
122 nM	5680 nM			CC(C)CC(=O)Nc1cc(-c2cc(C#CC(C)(C)C)c3[nH]nc(N)c3c2)ccn1 [Example 171, N-(4-(3-Amino-7-(3,3-dimethylbut-1-yn-1-yl)-1H-indazol-5-yl)pyridine-2-yl)-3-methylbutanamide]
152 nM	1470 nM			CCOC(=O)c1cccc(-c2cc(-c3ccnc(N)c3)cc3c(N)n[nH]c23)c1 [Example 112, Ethyl 3-(3-amino-5-(2-aminopyridin-4-yl)-1H-indazol-7-yl)benzoate]
76 nM	1590 nM			COCCNC(=O)Nc1cc(-c2ccc3[nH]nc(N)c3c2)ccn1 [Example 43, 1-(4-(3-Amino-1H-indazol-5-yl)pyridin-2-yl)-3-(2-methoxyethyl)urea]
21 nM	754 nM			Nc1n[nH]c2ccc(-c3ccnc(NC(=O)NCCO)c3)cc12 [Example 41, 1-(4-(3-Amino-1H-indazol-5-yl)pyridin-2-yl)-3-(2-hydroxyethyl)urea]
		449 nM	1080 nM	CC(C)(C)C#Cc1cc(-c2ccnc3[nH]c(C(C)(C)C)cc23)cc2c(N)n[nH]c12 [Example 296, 5-(2-(tert-Butyl)-1H-pyrrolo[2,3-b]pyridin-4-yl)-7-(3,3-dimethylbut-1-yn-1-yl)-1H-indazol-3-amine]
128 nM	7610 nM			CC(C)(C)C#Cc1cc(-c2ccnc(NCCN)c2)cc2c(N)n[nH]c12 [Example 161, N^1-(4-(3-Amino-7-(3,3-dimethylbut-1-yn-1-yl)-1H-indazol-5-yl)pyridin-2-yl)ethane-1,2-diamine]
36 nM	400 nM			Nc1n[nH]c2ccc(-c3ccnc(NC(=O)Nc4cccc(Cl)c4)c3)cc12 [Example 52, 1-(4-(3-Amino-1H-indazol-5-yl)pyridin-2-yl)-3-(3-chlorophenyl)urea]
237 nM	3500 nM			Nc1n[nH]c2ccc(-c3ccnc(NC(=O)Nc4cccc(Oc5ccccc5)c4)c3)cc12 [Example 56, 1-(4-(3-Amino-1H-indazol-5-yl)pyridin-2-yl)-3-(3-phenoxyphenyl)urea]
15 nM	1110 nM			CC(C)(C)C#Cc1cc(-c2ccnc(NC(=O)C3CC3)c2)cc2c(N)n[nH]c12 [Example 167, N-(4-(3-Amino-7-(3,3-dimethylbut-1-yn-1-yl)-1H-indazol-5-yl)pyridin-2-yl)cyclopropane carboxamide]
495 nM	> 10000 nM			Nc1n[nH]c2ccc(-c3ccnc(NCCN4CCCCC4)c3)cc12 [Example 31, 5-(2-((2-(Piperidin-1-yl)ethyl)amino)pyridine-4-yl)-1H-indazol-3-amine]
		54 nM	836 nM	Cc1coc(Nc2cc(-c3cc(C#CC(C)(C)C)c4[nH]nc(N)c4c3)ccn2)n1 [Example 315, N-(4-(3-Amino-7-(3,3-dimethylbut-1-yn-1-yl)-1H-indazol-5-yl)pyridin-2-yl)-4-methyloxazol-2-amine]
93 nM	1780 nM			Nc1n[nH]c2ccc(-c3ccnc(NC(=O)Nc4cccc(OCc5cccc(F)c5)c4)c3)cc12 [Example 59, 1-(4-(3-Amino-1H-indazol-5-yl)pyridin-2-yl)-3-(3-((3-fIuorobenzyl)oxy)phenyl)urea]
340 nM	> 10000 nM			CNCCCNc1cc(-c2ccc3[nH]nc(N)c3c2)ccn1 [Example 32, N^1-(4-(3-Amino-1H-indazol-5-yl)pyridin-2-yl)-N^3-methylpropane-1,3-diamine]
27 nM	419 nM			CS(=O)(=O)c1ccc(NC(=O)Nc2cc(-c3ccc4[nH]nc(N)c4c3)ccn2)cc1 [Example 65, 1-(4-(3-Amino-1H-indazol-5-yl)pyridin-2-yl)-3-(4-(methylsulfonyl)phenyl)urea]
